Reference: US12195558B2, “Targeted delivery system and methods of use therefor” (SANFORD BURNHAM PREBYS MEDICAL DISCOVERY INSTITUTE, priority 2015, dated 2025)
Bridge positions count the residues as written; N and C are the ends. Ends that are not written are not given here.

Experiments:
4T1 breast cancer cells = assay: In vitro binding and internalization of FAM-labeled peptide in 4T1 cells; assay type: cell-based; details: 100 μM FAM-labeled peptide, 1 hour at 37° C.
Procedure: (§1) FIGS. 6A and 6B are fluorescence micrographs showing internalization of CKRGARSTC (TT1; SEQ ID NO: 3) peptide in breast tumor cells in vitro. 100 μM FAM-labeled peptides were incubated with 4T1 (FIG. 6A) or MCF10 (FIG. 6B) breast cancer cells for 1 hour at 37° C. in DMEM high glucose/10% serum medium. Cells were washed, fixed, stained with anti-FITC antibody, and MITOTRACKER® (Life Technologies) or phalloidin as indicated. Scale bars: 20 μm.
(§2) The ability of the TT1 Peptide to bind to cultured breast tumor cells was tested in vitro.

NRP-1 = NRP-1 (Homo sapiens, UniProt O14786); assay: Fluorescence polarization assay on NRP-1 (control protein); assay type: binding; details: NRP-1 as control protein
NRP-1, sequence (O14786 22-923): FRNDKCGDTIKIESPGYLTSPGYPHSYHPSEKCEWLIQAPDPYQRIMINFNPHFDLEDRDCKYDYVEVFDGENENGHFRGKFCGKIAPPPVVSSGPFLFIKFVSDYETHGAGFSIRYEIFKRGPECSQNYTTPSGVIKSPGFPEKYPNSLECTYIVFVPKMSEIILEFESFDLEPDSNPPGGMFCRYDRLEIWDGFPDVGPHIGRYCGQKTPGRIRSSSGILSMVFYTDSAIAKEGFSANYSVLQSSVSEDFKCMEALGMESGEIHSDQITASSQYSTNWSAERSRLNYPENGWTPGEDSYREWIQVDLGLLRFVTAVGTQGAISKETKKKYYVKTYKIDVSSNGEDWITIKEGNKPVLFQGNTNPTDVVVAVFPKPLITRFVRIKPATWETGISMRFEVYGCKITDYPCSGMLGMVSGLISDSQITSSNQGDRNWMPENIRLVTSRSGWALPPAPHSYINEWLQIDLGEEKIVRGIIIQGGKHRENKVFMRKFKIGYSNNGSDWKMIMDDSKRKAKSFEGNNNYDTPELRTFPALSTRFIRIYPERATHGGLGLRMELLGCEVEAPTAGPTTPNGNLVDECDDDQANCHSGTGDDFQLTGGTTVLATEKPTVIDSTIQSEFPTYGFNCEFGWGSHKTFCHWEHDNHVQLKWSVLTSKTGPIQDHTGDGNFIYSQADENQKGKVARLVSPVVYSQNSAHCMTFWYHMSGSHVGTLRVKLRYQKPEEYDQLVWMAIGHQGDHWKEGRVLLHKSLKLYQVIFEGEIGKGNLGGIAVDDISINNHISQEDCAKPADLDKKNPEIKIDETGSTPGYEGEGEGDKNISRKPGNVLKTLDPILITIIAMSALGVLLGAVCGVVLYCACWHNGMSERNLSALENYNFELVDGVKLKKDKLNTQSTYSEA
From the text: (§3) FIGS. 4A and 4B are plots showing a comparison of the binding of LyP-1 (SEQ ID NO: 7; diamonds) and TT1 (SEQ ID NO: 3; squares) to p32 in a fluorescence polarization assay. […] NRP-1 was used as a control protein.

p32 [1] = biological target: T1, p32 (Homo sapiens, UniProt Q07021); assay: Binding of peptide-displaying T7 phage to p32-coated magnetic beads; details: phage-displayed peptide; relative to LyP-1
T1 construct: made in house; host or cells: E. coli Rosetta-gami-2 (Novagen)
T1 sequence (Q07021 74-282): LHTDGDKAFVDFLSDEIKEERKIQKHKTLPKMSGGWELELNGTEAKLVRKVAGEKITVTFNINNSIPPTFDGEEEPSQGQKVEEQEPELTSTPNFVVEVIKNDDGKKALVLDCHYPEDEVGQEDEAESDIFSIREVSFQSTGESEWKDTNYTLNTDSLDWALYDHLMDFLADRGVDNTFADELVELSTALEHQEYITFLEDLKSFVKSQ
Procedure: FIG. 10 is a bar graph showing that the p32 binding of the RGXR(S/T) motif (SEQ ID NOs: 4 and 5) in the exemplary TT1 peptide (SEQ ID NO: 3) was not dependent on the cyclic structure and compatible with flanking sequences. Phage clones displaying the indicated peptides were incubated in p32-coated magnetic microbeads. After washing to remove non-bound phage, specifically bound phage were quantified.
Milligram quantities of recombinant His-tagged p32 protein were expressed in E. coli and coated onto Ni-NTA magnetic beads, and biopanning was performed using two T7 bacteriophage peptide libraries (cyclic Cx7C and linear X7 library).
(§4) Variant peptide-encoding genomic DNA of phage was sequenced and analyzed for the presence of consensus motifs. After two rounds of selection, both linear and cyclic libraries converged to contain an RGXRS (SEQ ID NO: 4) pentapeptide motif (see FIG. 2B). The binding of RGXRS (SEQ ID NO: 4)-displaying phage to p32 was specific, as these phage bound to magnetic beads coated with p32 protein and not to beads coated with ligand-binding b1b2 domain of the cell and tissue penetration receptor NRP-1 or BSA (see FIG. 3).
(§5) An exemplary RGXRS (SEQ ID NO: 4) pentapeptide motif-containing peptide with the sequence CKRGARSTC (SEQ ID NO: 3) was designated as the […] and used it for further studies. Mutating any amino acid in the consensus motif of TT1 abolished the phage binding to p32. This new peptide conferred about 15-fold stronger phage binding to immobilized p32 protein than did the canonical LyP-1 peptide.

NRP-1 b1b2 domain = biological target: T2, NRP-1 b1b2 domain (Homo sapiens, UniProt O14786); assay: Binding of peptide-displaying T7 phage to NRP-1 b1b2-coated magnetic beads; details: 30 minutes at 37° C., p32 versus NRP-1 b1b2 beads
T2 sequence (O14786 273-586 limits assumed): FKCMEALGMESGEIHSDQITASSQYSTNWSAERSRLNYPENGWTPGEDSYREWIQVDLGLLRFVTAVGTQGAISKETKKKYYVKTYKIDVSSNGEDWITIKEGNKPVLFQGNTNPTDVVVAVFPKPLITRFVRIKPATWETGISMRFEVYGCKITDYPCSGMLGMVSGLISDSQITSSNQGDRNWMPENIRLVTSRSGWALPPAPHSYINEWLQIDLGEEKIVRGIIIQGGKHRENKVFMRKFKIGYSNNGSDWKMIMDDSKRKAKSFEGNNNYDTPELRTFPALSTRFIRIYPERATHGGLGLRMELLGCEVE
Procedure: FIG. 9 is a bar graph showing proteolytic switching of binding specificity of an exemplary TT1 peptide (SEQ ID NO: 3). T7 phage displaying an exemplary TT1 peptide (SEQ ID NO: 3) were exposed to increasing concentrations of crystalline trypsin and incubated for 30 minutes at 37° C. After treatment, phage were incubated with magnetic beads coated with either p32 (decending hatching left to right) or NRP-1 b1b2 (ascending hatching left to right) protein, followed by washes to remove unbound phage and quantitation of specifically bound phage.
as §4
The p32 binding motif with consensus sequence RGXRS (SEQ ID NO: 4; i.e., the RGXRS (SEQ ID NO: 4) pentapeptide motif) contains a cryptic RGXR CendR element that can be unmasked by a tryptic cleavage. […]

[2] = test system: orthotopic MCF7 breast tumors; assay: In vivo homing of intravenous FAM-labeled peptide, MCF7 tumors; set-up: species or system mice; details: 200 μg FAM-labeled peptide i.v., 2 hours
Procedure: (§6) FIGS. 7A and 7B are photographs depicting in vivo homing of an exemplary TT1 peptide. 200 μg of FAM-labeled TT1 (SEQ ID NO: 3) peptide or control peptide in PBS was intravenously injected to mice bearing orthotopic 4T1 (FIG. 7A) or MCF7 (FIG. 7B) breast tumors. The peptides were allowed to circulate for 2 hours and organs were collected and photographed under white (top panels) or UV (bottom panels) light. Arrows point to the tumors of TT1 (SEQ ID NO: 3)-injected mice. Note robust signal (white in black and white versions and green in color versions of the Figures) indicating homing of TT1 (SEQ ID NO: 3) peptide to the tumor in both models. H: heart; Lu: lung; Li: liver; Ki: kidney; Sp: spleen; T: tumor.

p32 [3] = biological target: T1, p32; assay: Fluorescence polarization assay with synthetic peptides on p32; assay type: binding; details: for binding to p32 in fluorescence polarization assay (in words): synthetic peptides
From the text: as §3
FIG. 5 is a plot showing that P32-TT1 (CKRGARSTC; SEQ ID NO: 3) and LyP-1 (SEQ ID NO: 7) peptides competed for binding to the P32 protein. […] Squares: p32-TT1; Diamonds: LyP-1; X: RPARPAR peptide (SEQ ID NO: 14).
as §5

[4] = test system: orthotopic 4T1 breast tumors; assay: In vivo homing of intravenous FAM-labeled peptide, 4T1 tumors; set-up: species or system mice; details: 4T1 syngeneic tumors, 200 μg FAM-labeled peptide i.v., 2 hours
Procedure: as §6

[5] = test system: MCF10 breast cancer cells; assay: In vitro binding and internalization of FAM-labeled peptide in MCF10 cells; assay type: cell-based; details: 100 μM FAM-labeled peptide, 1 hour at 37° C.
Procedure: as §1, §2

[6] = Aggregation of peptide-coated nanoparticles; assay type: physicochemical; details: peptide on nanoparticles
From the text: The linear TT1 Peptide was selected for further study as a D[KLAKLAK]2 (SEQ ID NO: 42) conjugate on NWs. The CGKRK (SEQ ID NO: 6) and LyP-1 Peptides were included for comparison.

MDA-MB-231 xenografts = assay: In vivo homing of intravenous peptide, MDA-MB-231 xenografts; set-up: species or system mice; details: i.v.
atherosclerotic plaques = assay: Homing to atherosclerotic plaques in ApoE null mice on high-fat diet; assay type: in vivo; details: for homing to and penetration into plaque tissue: 100 mg FAM labeled peptide i.v., one hour
Procedure: ApoE null mice that had been kept on a high-fat diet were intravenously injected with […] of the FAM labeled peptides. One hour later, the mice were perfused through the heart under anesthesia, and tissues were collected. The panels show accumulation of FAM labeled peptides visualized with UV excitation. The center two and right two panels show atherosclerotic aortas that were sectioned at the aortic root level and examined by confocal microscopy.

## CKRGARSTC (disulfide 1-9 (inferred)) [TT1 Peptide]
4T1 breast cancer cells
  cell surface binding and internalization: rapidly bound to the surface of 4T1 and MCF10 breast cancer cells and was internalized over time
NRP-1
  binding to NRP-1 in fluorescence polarization assay (in words): only background binding
p32 [1]
  phage binding to immobilized p32 protein, fold stronger than the canonical LyP-1 peptide: about 15 fold
NRP-1 b1b2 domain
  binding specificity after exposure to trypsin: affinity switching from p32 to NRP-1 b1b2
[2]
  tumor homing: homed to breast tumors
[2]; listed as TT1
  tumor homing: robust signal
p32 [3]; competition, fluorescence polarization
  inhibition of binding of labeled TT1 to P32 by unlabeled peptide: could be inhibited
p32 [3]; fluorescence polarization
  binding site on p32: shared the binding site on p32 with the LyP-1 peptide
p32 [3]; method not stated at the place
  affinity for p32 (in words): high affinity for p32
p32 [3]
  binding to p32 in fluorescence polarization assay (in words): specific
p32 [3]; listed as TT1
  binding to p32 in fluorescence polarization assay (in words): bound to p32 with a higher affinity than LyP-1
[4]
  tumor homing: homed to breast tumors
[4]; listed as TT1
  tumor homing: robust signal
[5]
  cell surface binding and internalization: rapidly bound to the surface of 4T1 and MCF10 breast cancer cells and was internalized over time
[6]
  aggregation of the peptide-coated nanoparticles: tended to cause aggregation of the peptide-coated nanoparticles
MDA-MB-231 xenografts
  tumor homing: homed to breast tumors
Atherosclerotic plaques
  homing to and penetration into plaque tissue: homed to and penetrated atherosclerotic lesions
Atherosclerotic plaques; listed as TT1
  homing to and penetration into plaque tissue: homed to and penetrated into plaque tissue as well as or better than LyP-1
Atherosclerotic plaques; ApoE null mice on high-fat diet
  plaque homing compared with LyP-1 peptide: more robust than seen with the LyP-1 peptide
